From PMC12615753, “Glutathione as a taste modulator: molecular mechanisms of interaction with umami and sweet taste receptors” (Food Chemistry: Molecular Sciences, 2025)

Experiments:
[1] = biological target: T1, hTAS1R2/rTAS1R3 (UniProt Q8TE23+Q923K1); assay: Calcium assay in transfected HEK293T/17 cells, sweet taste receptor; type: cell-based, human, rat
T1 construct: The cDNA coding region of rTAS1R3 was synthesized with optimized-codon usage for human expression; expressed in transfected cells
T1 sequence (Q8TE23 20-839): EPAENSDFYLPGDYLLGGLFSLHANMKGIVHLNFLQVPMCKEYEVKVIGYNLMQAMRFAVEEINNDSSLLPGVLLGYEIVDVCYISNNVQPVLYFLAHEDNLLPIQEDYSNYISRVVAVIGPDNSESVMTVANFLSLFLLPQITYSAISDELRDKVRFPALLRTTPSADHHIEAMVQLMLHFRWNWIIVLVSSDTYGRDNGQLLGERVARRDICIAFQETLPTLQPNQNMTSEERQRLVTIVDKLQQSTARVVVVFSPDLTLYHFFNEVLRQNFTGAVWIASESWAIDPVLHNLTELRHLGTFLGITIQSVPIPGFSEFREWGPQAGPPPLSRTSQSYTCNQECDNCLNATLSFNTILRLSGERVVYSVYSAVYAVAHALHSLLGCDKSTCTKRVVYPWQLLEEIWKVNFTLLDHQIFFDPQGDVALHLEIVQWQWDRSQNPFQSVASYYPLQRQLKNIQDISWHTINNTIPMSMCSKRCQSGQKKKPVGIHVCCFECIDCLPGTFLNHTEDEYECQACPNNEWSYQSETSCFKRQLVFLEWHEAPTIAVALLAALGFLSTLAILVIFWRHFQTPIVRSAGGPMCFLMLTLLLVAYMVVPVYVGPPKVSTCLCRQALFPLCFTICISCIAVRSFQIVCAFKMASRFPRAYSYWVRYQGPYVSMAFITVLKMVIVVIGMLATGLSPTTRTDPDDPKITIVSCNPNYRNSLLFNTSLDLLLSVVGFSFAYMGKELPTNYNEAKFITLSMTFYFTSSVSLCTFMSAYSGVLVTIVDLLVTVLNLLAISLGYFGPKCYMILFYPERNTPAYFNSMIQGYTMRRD
T1 sequence (Q923K1 21-858): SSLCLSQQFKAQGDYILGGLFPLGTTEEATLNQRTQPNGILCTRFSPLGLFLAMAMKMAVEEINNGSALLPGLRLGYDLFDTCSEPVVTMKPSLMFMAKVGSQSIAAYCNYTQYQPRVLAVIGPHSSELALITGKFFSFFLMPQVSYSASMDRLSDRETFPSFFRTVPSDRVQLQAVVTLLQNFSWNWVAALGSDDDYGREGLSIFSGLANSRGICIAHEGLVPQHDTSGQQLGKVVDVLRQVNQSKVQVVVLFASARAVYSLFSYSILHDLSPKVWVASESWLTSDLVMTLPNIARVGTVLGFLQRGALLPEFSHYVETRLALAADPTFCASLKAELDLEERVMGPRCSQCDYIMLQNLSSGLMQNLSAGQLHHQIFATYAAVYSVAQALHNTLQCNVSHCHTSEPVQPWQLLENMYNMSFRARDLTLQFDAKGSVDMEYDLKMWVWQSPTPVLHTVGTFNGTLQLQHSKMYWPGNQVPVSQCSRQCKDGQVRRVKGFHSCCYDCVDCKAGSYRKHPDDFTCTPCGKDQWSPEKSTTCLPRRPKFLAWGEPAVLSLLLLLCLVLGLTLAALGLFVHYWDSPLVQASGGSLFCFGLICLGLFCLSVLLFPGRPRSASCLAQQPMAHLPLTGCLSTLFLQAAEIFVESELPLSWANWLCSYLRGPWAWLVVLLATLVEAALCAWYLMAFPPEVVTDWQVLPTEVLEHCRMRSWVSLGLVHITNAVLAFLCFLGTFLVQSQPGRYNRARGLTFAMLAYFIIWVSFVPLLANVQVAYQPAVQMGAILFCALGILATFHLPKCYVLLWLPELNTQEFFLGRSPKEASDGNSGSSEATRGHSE
Protocol: HEK293T/17 cells (ATCC CRL-11268) were seeded into clear bottom black 96-well plates coated with poly-D-lysine at a density of 32500 cells/well in 100 μL of DMEM containing 4.5 g/L glucose and supplemented with penicillin/streptomycin, 2 mM GlutaMAX and 10 % dialyzed fetal bovine serum. The plates were incubated for 24 h at 37 °C and 7.3 % CO2 in a humidified atmosphere. After incubation, using Fugene® 4 K (0.46 μL/well, Promega, Illkirch, France), the cells were transiently transfected with pcDNA3-hTAS1R1-WT (60 ng/well) or TAS1R1 mutants, pcDNA4-rTAS1R3 (60 ng/well), pcDNA3-Gα15i2 (10 ng/well), and pGP-CMV-GCaMP6s (Addgene #40753; 10 ng/well) as a genetically encoded calcium indicator. Twenty-four hours after transfection, the HEK293T/17 cells were rinsed with 100 μL of C1 buffer (130 mM NaCl, 5 mM KCl, 10 mM HEPES, 2 mM CaCl2, and 5 mM sodium pyruvate, pH 7.4). For each molecule tested, a semi-logarithmic concentration range was created consisting of seven increasing concentrations and a negative control (zero dose) made of buffer C1. Binary mixtures with different molecules were also made to study potential synergy. In this case, the concentration range was tested in C1 buffer containing the other molecules to be tested. The concentration ranges varied depending on the molecule, its solubility, and its effectiveness in activating the receptor. All the solutions were made on the day of the test to prevent any oxidation of the compounds. If needed, the pH of each solution was adjusted by to pH 7.4 by adding NaOH. After 20 s of basal fluorescence calcium measurement, the cells were stimulated via automatic injection of a range of compounds in eight wells, and the signal emission was recorded for an additional 70 s, via a FlexStation 3® fluorometric microplate reader (Molecular Devices, San Jose, CA, USA). As a control, molecules were also tested on mock-transfected cells with the empty vector. The emitted fluorescence was measured at a wavelength of 510 nm after excitation at 488 nm. Each measurement was performed in duplicate on the same plate, and the experiments were carried out at least four times. Kinetic data were acquired via SoftMax Pro 5.4.6 software (Molecular Devices). For each well, the decrease in the raw fluorescence as the relative fluorescence changed was calculated as ΔF/F0. Replicates were averaged for the wells subjected to the same stimuli, the background signal was subtracted, and the fluorescence changes in mock-transfected cells were subtracted. The half-maximal effective concentration (EC50) and maximal signal amplitude (max ∆F/F0) were calculated via non-linear regression of the sigmoidal function four-parameter logistic equation [f(x) = min + (max − min)/(1 + (x/EC50)^nH)] via SigmaPlot 15.0 software (Grafiti LLC, Palo Alto, CA, USA). […]

[2] = biological target: T2, hTAS1R2/hTAS1R3(r1–575) (UniProt Q8TE23+Q923K1, A645S/A698V/A702T/A793V/A807V/C582S/C678S/E725V/E827G/F612A/F622V/F805L/I617V/I740A/I779T/I803L/K818R/L735F/L823M/L825Q/M644L/M706V/M729T/N675D/Q717H/Q757R/Q795R/Q831P/R632Q/R634S/R762C/S576L/S610P/S635P/S637R/S679G/T588V/T694M/T813A/V584A/V718M/V723A/V738A/V744T/V821L/W599R/W676R/W824R/Y598H/Y680C/Y794L); assay: Calcium assay, chimeric TAS1R3 co-expressed with hTAS1R2; type: cell-based, human, rat
T2 construct: hTAS1R3(r1–575) consists of the N-terminal extracellular domain of rTAS1R3 and the TMD of hTAS1R3; expressed in transfected cells
T2 sequence (Q923K1 other isoform, or with tags, fused parts or gaps with the stated changes, one chain of several): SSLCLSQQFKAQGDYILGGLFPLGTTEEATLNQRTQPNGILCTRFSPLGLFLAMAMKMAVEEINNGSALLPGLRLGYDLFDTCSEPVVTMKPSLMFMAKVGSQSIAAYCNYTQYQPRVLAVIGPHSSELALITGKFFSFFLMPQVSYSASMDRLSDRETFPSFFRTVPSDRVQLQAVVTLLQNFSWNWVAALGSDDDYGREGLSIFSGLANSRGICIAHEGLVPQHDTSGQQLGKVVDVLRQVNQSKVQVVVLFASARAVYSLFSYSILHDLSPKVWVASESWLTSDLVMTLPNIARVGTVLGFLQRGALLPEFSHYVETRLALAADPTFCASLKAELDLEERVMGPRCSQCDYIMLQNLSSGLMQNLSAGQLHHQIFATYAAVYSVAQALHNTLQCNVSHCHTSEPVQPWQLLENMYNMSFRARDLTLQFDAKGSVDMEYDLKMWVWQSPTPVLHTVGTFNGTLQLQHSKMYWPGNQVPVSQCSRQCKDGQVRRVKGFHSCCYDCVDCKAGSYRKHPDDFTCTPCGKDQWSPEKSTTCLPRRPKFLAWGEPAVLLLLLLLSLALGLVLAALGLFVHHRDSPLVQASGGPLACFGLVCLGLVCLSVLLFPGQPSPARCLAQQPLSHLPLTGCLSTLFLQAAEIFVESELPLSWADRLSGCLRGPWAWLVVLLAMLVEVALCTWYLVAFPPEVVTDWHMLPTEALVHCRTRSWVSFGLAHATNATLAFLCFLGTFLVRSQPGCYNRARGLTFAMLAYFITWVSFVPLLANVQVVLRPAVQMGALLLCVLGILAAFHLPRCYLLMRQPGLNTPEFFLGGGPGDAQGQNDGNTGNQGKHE
Excerpt: Chimeric Gα proteins, such as Gα16Gust44, Gα16Gi3 or Gα15i2, are widely used in the functional expression of TAS1R receptors ([Backes et al., 2015]; [Suess et al., 2015]; [Toda et al., 2021], [Toda et al., 2013], [Toda et al., 2018]; [Zhang et al., 2008]). Chimeric Gα15i2 (([Toda et al., 2013]), Supplementary data) was generated by replacing the last five residues of the C-terminal tail of rat Gα15i2 (EINLL) (UniProt number G3V6N8; https://www.uniprot.org/uniprot/) with the counterpart sequence from human GNAI2 (DCGLF) (UniProt number P04899-1) and cloning into the pcDNA3.1/Hygro vector (Invitrogen, Thermo Fisher Scientific, Illkirch, France) between the HindIII and NotI restriction sites, resulting in the plasmid pcDNA3.1-Gα15i2. Chimeric Gα16Gust44 construct have already been reported ([Raliou et al., 2011]). Briefly, Gα16Gust44 was generated by replacing the C-terminal of Gα16 with the C-terminal 44 residues of gustducin. As previously described, hTAS1R1 was amplified from human fungiform papillae cDNA and cloned and inserted into pcDNA3 (Invitrogen), generating pcDNA3-TAS1R1-WT (wild-type) ([Raliou et al., 2011]). […]

| Compound | EC50 ([1]; agonist alone, Fig. 2) [µM] | fold decrease in the EC50 value of sucralose ([1]; in the presence of 10 mM GSH) [fold] | fold decrease in the EC50 value of sucralose ([2]; in the presence of 10 mM GSH) [fold] | EC50 ([1]; WT, sucralose alone, Fig. 4A) [µM] | EC50 ([2]; sucralose alone, Fig. 3B) [µM] |
| --- | --- | --- | --- | --- | --- |
| N[C@@H](CCC(=O)N[C@@H](CS)C(=O)NCC(=O)O)C(=O)O [GSH, γ-L-glutamyl-L-cysteinyl-glycine] | 4060 ± 2510 | 3 | 5.2 | – | – |
| OC[C@H]1O[C@H](O[C@]2(CCl)O[C@H](CCl)[C@@H](O)[C@@H]2O)[C@H](O)[C@@H](O)[C@H]1Cl [sucralose, reference compound] | 251 ± 128 | – | – | 325 ± 140 | 485 ± 138 |
